Literature values in paper PMC4014123 (Acta Crystallographica Section D: Biological Crystallography, 2014).

Tested on: I223R/H275Y dual mutation of neuraminidase from influenza A H1N1
Settings: I223R/H275Y dual mutant vs wild type; ref van der Vries et al., 2012; cited from earlier work

## CCOC(=O)C1=C[C@@H](OC(CC)CC)[C@H](NC(C)=O)[C@@H](N)C1 [oseltamivir]
  resistance towards oseltamivir relative to wild type: approximately 7500 times
